Drawing on PubChem BioAssay (NCI), this text covers TGI for 15 molecules.

By TGI is commonly meant the concentration giving total growth inhibition. Low readings indicate greater sensitivity of the cells, high ones lower sensitivity of the cells.

Among the test systems are OVCAR-8 ovarian; RXF 393 renal; CAKI-1 renal; RPMI-8226 leukemia; NCI-H226 lung; MOLT-4 leukemia; HT29 colon; SK-MEL-2 melanoma; MCF7 breast; SR leukemia.
What all share (test): DTP human tumour cell line panel, 48 h

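Results reflect a 48-hour exposure of cells in 96-well plates to compound at five concentrations. TGI: total growth inhibition.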

For the molecule `CC1CN(C)c2ccccc2N=C1NN` (configuration not stated), the TGI in the test with OVCAR-8 ovarian was above 100 µM; in the test on RXF 393 renal it was 78.6 µM; with CAKI-1 renal, above 100 µM; with RPMI-8226 leukemia, above 100 µM; in the test on NCI-H226 lung, above 100 µM; in the test with MOLT-4 leukemia, above 100 µM. Also, the TGI in the test on HT29 colon and in the test on SK-MEL-2 melanoma was above 100 µM each time.
`CCOP(=O)(OCC)C(F)(F)c1ccc(CC(NC(=O)OC(C)(C)C)C(=O)O)cc1` (configuration not stated): the TGI in the test with OVCAR-8 ovarian, with CAKI-1 renal, in the test on MCF7 breast, with NCI-H226 lung, in the test with MOLT-4 leukemia and in the test on HT29 colon was above 10 µM in each case.
Regarding `C(=C(c1ccc(OC2CCCCO2)cc1)c1ccc(OC2CCCCO2)cc1)c1ccccc1` (configuration not stated), the TGI was 2.64 µM in the test on OVCAR-8 ovarian; 2.25 µM in the test on RXF 393 renal; 1.92 µM in the test on CAKI-1 renal; 1.43 µM with MCF7 breast; 3.17 µM in the test with NCI-H226 lung; above 100 µM in the test with MOLT-4 leukemia. The TGI in the test on HT29 colon is 1.28 µM; in the test with SK-MEL-2 melanoma, 2.77 µM.
For `[N-]=[N+]=NC(c1ccccc1)(c1ccccc1)c1ccccc1`, the TGI came to 35.1 µM in the test with OVCAR-8 ovarian; 32.9 µM in the test on RXF 393 renal; 46.7 µM with CAKI-1 renal; 35.7 µM in the test with MCF7 breast; 62.6 µM in the test on RPMI-8226 leukemia; 33.2 µM with NCI-H226 lung. The TGI in the test with MOLT-4 leukemia was determined as 44.8 µM; with HT29 colon it was 32.6 µM; with SK-MEL-2 melanoma it was 29.3 µM.
On to `O=C(C1OC1c1ccc(Br)cc1O)C12CC3CC(CC(C3)C1)C2` (configuration not stated), for which the TGI in the test with OVCAR-8 ovarian was above 100 µM; in the test with RXF 393 renal it was 72.4 µM; in the test with MCF7 breast it was above 100 µM; in the test with RPMI-8226 leukemia it was 47.5 µM; in the test on NCI-H226 lung, above 100 µM; in the test with MOLT-4 leukemia it was 66.7 µM. In the test on HT29 colon, this molecule came in with a TGI above 100 µM.
Turning to `c1ccc2c3[nH]c(c2c1)=Nc1ccc(cc1)-c1nc2cc(ccc2o1)N=c1[nH]c(c2ccccc12)=Nc1ccc2nc(oc2c1)-c1ccc(cc1)N=3`, the TGI with RXF 393 renal, with CAKI-1 renal, in the test with MCF7 breast, in the test on MOLT-4 leukemia, in the test on SR leukemia and in the test on HT29 colon was above 100 µM in each case.
In the case of `CCOC(=O)c1c(CN2CCCC2)n(-c2ccccc2)c2cc(Br)c(O)cc12`, the TGI is 49.1 µM in the test on OVCAR-8 ovarian; 25.6 µM with RXF 393 renal; 40.8 µM in the test on CAKI-1 renal; 39.5 µM in the test with MCF7 breast; 39.5 µM in the test on RPMI-8226 leukemia; 41.7 µM in the test with MOLT-4 leukemia. For the same molecule, the TGI with SR leukemia came to 42.8 µM; in the test on HT29 colon it was 18.2 µM; in the test on SK-MEL-2 melanoma it was 33.3 µM.
As for `COC(=O)[C@@H](O)[C@](O)(CCC(C)C)C(=O)O[C@@H]1C(OC)=C[C@]23CCCN2CCc2cc4c(cc2[C@H]13)OCO4`, the TGI with OVCAR-8 ovarian was determined as 6.51 µM; in the test on RXF 393 renal it was 5.41 µM; in the test with CAKI-1 renal it was 7.36 µM; with MCF7 breast, 2.18 µM; with RPMI-8226 leukemia, 6.06 µM; in the test on NCI-H226 lung, 6.31 µM. In addition, the TGI with MOLT-4 leukemia was determined as 6.97 µM; in the test with HT29 colon, 12.2 µM; in the test with SK-MEL-2 melanoma it was 9.15 µM.
With `O=C(NCc1ccccc1)c1n[nH][nH]c1=O`, the TGI in the test on OVCAR-8 ovarian, with RXF 393 renal, in the test with CAKI-1 renal, in the test with MCF7 breast, in the test on RPMI-8226 leukemia and in the test on NCI-H226 lung was above 100 µM in each case. Besides, the TGI with MOLT-4 leukemia, with HT29 colon and with SK-MEL-2 melanoma was above 100 µM throughout.
Take `CCC(=O)NCC1CCCN2CCCCC12` (configuration not stated): the TGI in the test on OVCAR-8 ovarian, with RXF 393 renal, in the test with CAKI-1 renal, in the test with MCF7 breast, in the test with RPMI-8226 leukemia and in the test on NCI-H226 lung was above 100 µM each time. Further, the TGI with MOLT-4 leukemia, with HT29 colon and in the test on SK-MEL-2 melanoma was above 100 µM in each case.
Take `COc1ccc(/C=c2\sc3n(c2=O)CCN=3)cc1`: the total growth inhibition concentration (TGI) in the test on OVCAR-8 ovarian, in the test with RXF 393 renal, with MOLT-4 leukemia, in the test on SR leukemia, in the test with HT29 colon and with SK-MEL-2 melanoma was above 100 µM each time.
Regarding `Cc1cc(Nc2ccc(S(=O)(=O)O)c3cc(S(=O)(=O)O)cc(S(=O)(=O)O)c23)c2ccccc2n1`, the TGI in the test with OVCAR-8 ovarian, with RXF 393 renal, with CAKI-1 renal, in the test on MCF7 breast, with RPMI-8226 leukemia and in the test with NCI-H226 lung was above 100 µM each time. In addition, the TGI in the test on MOLT-4 leukemia, with HT29 colon and in the test on SK-MEL-2 melanoma was above 100 µM in each case.
`Cc1ccc(NC(=O)CC2Sc3ccccc3NC2=O)cc1C` (configuration not stated): the TGI in the test on OVCAR-8 ovarian, in the test on RXF 393 renal, with CAKI-1 renal, in the test with RPMI-8226 leukemia, in the test with NCI-H226 lung and with MOLT-4 leukemia was above 100 µM throughout. Also, the TGI in the test on SR leukemia, in the test on HT29 colon and with SK-MEL-2 melanoma was above 100 µM throughout.
`Cn1c(=O)c2c(nc3n2CC(C(=O)O)N3)n(C)c1=O` (configuration not stated): the TGI in the test on OVCAR-8 ovarian, in the test on RXF 393 renal, in the test with CAKI-1 renal, in the test with MCF7 breast, in the test on RPMI-8226 leukemia and with NCI-H226 lung was above 100 µM each time. In addition, the figures for the TGI in the test with MOLT-4 leukemia, in the test on HT29 colon and in the test on SK-MEL-2 melanoma were 0.242 µM, above 100 µM and above 100 µM, respectively.
With `O=c1[nH]c(=S)[nH]c2c1C(c1ccc([N+](=O)[O-])cc1)c1c([nH]c(=S)[nH]c1=O)O2`, the TGI in the test on OVCAR-8 ovarian, with RXF 393 renal, with CAKI-1 renal, in the test with MCF7 breast, with RPMI-8226 leukemia and in the test on NCI-H226 lung was above 100 µM throughout. The total growth inhibition concentration (TGI) in the test on MOLT-4 leukemia, in the test with HT29 colon and in the test with SK-MEL-2 melanoma was above 100 µM in each case.
